Tested on: ENPP2, LPAR3 and PTGS2 mRNA (LPA signalling pathway) in the uterus
Assay: Quantitative PCR of key molecules in the LPA signalling pathway in gilt uteri (Example 4)
Assay type: in vivo, pigs
Conditions: gilts, 12 μg/kg·BW
Method: The gilts in the batch farrowing with FTAI and the gilts in the batch farrowing with FTAI supplementing once with 1-[bis(4-cyanophenyl)methyl]-1,2,4-triazole (12 μg/kg·BW) were slaughtered. The gilts were slaughtered 16 days after mating, with 4 gilts slaughtered per group. By judging the number of corpora lutea on the ovary, the number of ovulated oocytes (each corpus luteum represented an ovulation point) was confirmed.
Uteri were isolated from the gilts for RNA extraction, reverse transcription and quantitative PCR detection of several key molecules in the LPA signalling pathway, i.e., detection of ENPP2 (a gene for the expression of ATX, the key enzyme of LPA synthesis), LPAR3 (LPA receptor gene), and PTGS2 (a key gene downstream of LPAR).

Compound: N#Cc1ccc(C(c2ccc(C#N)cc2)n2cncn2)cc1 [1-[bis(4-cyanophenyl)methyl]-1,2,4-triazole]
- Enpp2, Lpar3 and ptgs2 mRNA levels in the uteri (compared with batch farrowing with FTAI group): significantly higher
- Enpp2, Lpar3 and ptgs2 mRNA levels in the uteri (compared with natural estrus group): no significant difference
